From patent publication US10450347B2, “Immunomodulators” (BRISTOL-MYERS SQUIBB COMPANY, priority 2015, dated 2019)
Starred links: 1 amine or outer side, 2 acyl side, 3 side chain; linkers in the order of their positions; H or OH if unused. Positions of bridges follow the written chain, without caps; N, C: chain ends. Non-standard residues stand in square brackets, D forms with d. Residues, ends and D or L forms follow the SMILES beside them. ξ: configuration not given here. Tyrψ(CN4)Ala = C[C@@H](C(=O)[*:2])n1nnnc1[C@H](Cc1ccc(O)cc1)N[*:1]; X1 = CCCC[C@@H](C(=O)[*:2])n1nnnc1[C@H](Cc1c[nH]c2ccccc12)N[*:1]; Morpholine(3S-CO) = O=C(O)[C@@H]1COCCN1; Bta = N[C@@H](Cc1csc2ccccc12)C(=O)O; Hyp = O=C(O)[C@@H]1C[C@@H](O)CN1; NMeNle = CCCC[C@H](NC)C(=O)O; ξH = NC(Cc1c[nH]cn1)C(=O)O; NMeA = CN[C@@H](C)C(=O)O; Orn = NCCC[C@H](N)C(=O)O; Dab = NCC[C@H](N)C(=O)O; Dap = NC[C@H](N)C(=O)O; ξC = NC(CS)C(=O)O

target: T1, PD-1-Ig/PD-L1-His (Homo sapiens, UniProt Q9NZQ7); assay: PD-1/PD-L1 Homogenous Time-Resolved Fluorescence (HTRF) binding assay; conditions: inhibition of PD-1-Ig binding to PD-L1-TVMV-His; numeric values
T1 construct: [hPD-L1(19-239)-tobacco vein mottling virus protease cleavage site (TVMV)-His]; made in house; host or cells: HEK293T cells
From the text: The ability of the macrocyclic peptides of the present disclosure to bind to PD-L1 was investigated using a PD-1/PD-L1 Homogenous Time-Resolved Fluorescence (HTRF) binding assay.
Homogenous Time-Resolved Fluorescence (HTRF) Assays of Binding of Soluble PD-1 to Soluble PD-L1. Soluble PD-1 and soluble PD-L1 refers to proteins with carboxyl-end truncations that remove the transmembrane-spanning regions and are fused to heterologous sequences, specifically the Fc portion of the human immunoglobuling G sequence (Ig) or the hexahistidine epitope tag (SEQ ID NO: 3) (His). All binding studies were performed in an HTRF assay buffer consisting of dPBS supplemented with 0.1% (w/v) bovine serum albumin and 0.05% (v/v) Tween-20. For the PD-1-Ig/PD-L1-His binding assay, inhibitors were pre-incubated with PD-L1-His (10 nM final) for 15 m in 4 μl of assay buffer, followed by addition of PD-1-Ig (20 nM final) in 1 μl of assay buffer and further incubation for 15 m. PD-L1 fusion proteins from either human, cynomologous macaques, mouse, or other species were used. HTRF detection was achieved using europium crypate-labeled anti-Ig monoclonal antibody (1 nM final) and allophycocyanin (APC) labeled anti-His monoclonal antibody (20 nM final). Antibodies were diluted in HTRF detection buffer and 5 μl was dispensed on top of binding reaction. The reaction was allowed to equilibrate for 30 minutes and signal (665 nm/620 nm ratio) was obtained using an EnVision fluorometer. Additional binding assays were established between PD-1-Ig/PD-L2-His (20 and 5 nM, respectively), CD80-His/PD-L1-Ig (100 and 10 nM, respectively) and CD80-His/CTLA4-Ig (10 and 5 nM, respectively). Binding/competition studies between biotinylated Compound No. 71 and human PD-L1-His were performed as follows. Macrocyclic peptide inhibitors were pre-incubated with PD-L1-His (10 nM final) for 60 minutes in 4 μl of assay buffer followed by addition of biotinylated Compound No. 71 (0.5 nM final) in 1 μl of assay buffer. Binding was allowed to equilibrate for 30 minutes followed by addition of europium crypated labeled Streptavidin (2.5 pM final) and APC-labeled anti-His (20 nM final) in 5 μl of HTRF buffer. The reaction was allowed to equilibrate for 30 m and signal (665 nm/620 nm ratio) was obtained using an EnVision fluorometer.
Recombinant Proteins. Carboxyl-truncated human PD-1 (amino acids 25-167) with a C-terminal human Ig epitope tag [hPD-1 (25-167)-3S-IG] and human PD-L1 (amino acids 18-239) with a C-terminal His epitope tag [hPD-L1(19-239)-tobacco vein mottling virus protease cleavage site (TVMV)-His] were expressed in HEK293T cells and purified sequentially by recombinant Protein A affinity chromatography and size exclusion chromatography. Human PD-L2-His (Sino Biologicals), CD80-His (Sino Biologicals), CTLA4-Ig (RnD Systems) were all obtained through commercial sources.

T1 sequence (Q9NZQ7 with tags, fused parts or gaps): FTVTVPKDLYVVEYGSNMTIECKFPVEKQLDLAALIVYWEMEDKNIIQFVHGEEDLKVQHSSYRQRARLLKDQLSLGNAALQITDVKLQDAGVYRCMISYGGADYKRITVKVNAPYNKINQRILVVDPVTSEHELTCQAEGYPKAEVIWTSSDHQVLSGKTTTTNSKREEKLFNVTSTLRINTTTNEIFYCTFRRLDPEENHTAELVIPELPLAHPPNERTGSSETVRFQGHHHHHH

IC50 | SMILES
0.008 µM | CCCC[C@H]1C(=O)N[C@@H](C)C(=O)N[C@H](C(=O)NCC(N)=O)CSCC(=O)N[C@@H](Cc2ccc(O)cc2)C(=O)N2CCOC[C@H]2C(=O)N[C@@H](CC(N)=O)C(=O)N2CCC[C@H]2C(=O)N[C@@H](CN)C(=O)N[C@@H](CC(C)C)C(=O)N2C[C@H](O)C[C@H]2C(=O)N[C@@H](Cc2c[nH]c3ccccc23)C(=O)N[C@@H](CO)C(=O)N[C@@H](Cc2c[nH]c3ccccc23)c2nnnn2[C@@H](CCCC)C(=O)N1C [Example 1055] ({CH2CO}-Y[Morpholine(3S-CO)]NP[Dap]L[Hyp]WS[X1][NMeNle]ACG-NH2; thioether N-13)

same assay, conditions: inhibition of PD-1-Ig binding to PD-L1-TVMV-His; range classes

IC50 | SMILES
0.1 to 10 µM | CCCC[C@H]1C(=O)N[C@@H](CCCN)C(=O)N[C@H](C(=O)NCC(N)=O)CSCC(=O)N[C@@H](Cc2ccc(O)cc2)C(=O)N(C)[C@@H](C)C(=O)N[C@@H](CC(N)=O)C(=O)N2CCC[C@H]2C(=O)N[C@@H](CN)C(=O)N[C@@H](CC(C)C)C(=O)N2C[C@H](O)C[C@H]2C(=O)N[C@@H](Cc2c[nH]c3ccccc23)C(=O)N[C@@H](CO)C(=O)N[C@@H](Cc2c[nH]c3ccccc23)c2nnnn2[C@@H](CCCC)C(=O)N1C [Example 1051] ({CH2CO}-Y[NMeA]NP[Dap]L[Hyp]WS[X1][NMeNle][Orn]CG-NH2; thioether N-13)
0.01 to 0.099 µM | CCCC[C@H]1C(=O)N[C@@H](CCCNC(=N)N)C(=O)N[C@H](C(=O)NCC(N)=O)CSCC(=O)N[C@@H](Cc2ccc(O)cc2)C(=O)N(C)[C@@H](C)C(=O)N[C@@H](CC(N)=O)C(=O)N2CCC[C@H]2C(=O)N[C@@H](Cc2cnc[nH]2)C(=O)N[C@@H](CC(C)C)C(=O)N2C[C@H](O)C[C@H]2C(=O)N[C@@H](Cc2c[nH]c3ccccc23)C(=O)N[C@@H](CO)C(=O)N[C@@H](Cc2cccc3ccccc23)c2nnnn2[C@@H](CCCC)C(=O)N1C [Example 1052]
0.01 to 0.099 µM | CCCC[C@H]1C(=O)N[C@@H](CCC(=O)O)C(=O)N[C@H](C(=O)NCC(N)=O)CSCC(=O)N[C@@H](Cc2ccc(O)cc2)C(=O)N2CCOC[C@H]2C(=O)N[C@@H](CC(N)=O)C(=O)N2CCC[C@H]2C(=O)N[C@@H](CN)C(=O)N[C@@H](CC(C)C)C(=O)N2C[C@H](O)C[C@H]2C(=O)N[C@@H](Cc2c[nH]c3ccccc23)C(=O)N[C@@H](CO)C(=O)N[C@@H](Cc2c[nH]c3ccccc23)c2nnnn2[C@@H](CCCC)C(=O)N1C [Example 1053] ({CH2CO}-Y[Morpholine(3S-CO)]NP[Dap]L[Hyp]WS[X1][NMeNle]ECG-NH2; thioether N-13)
0.1 to 10 µM | CCCC[C@H]1C(=O)N[C@@H](CCCN)C(=O)NC(C(=O)NCC(N)=O)CSCC(=O)N[C@@H](Cc2ccc(O)cc2)C(=O)N2CCOC[C@H]2C(=O)N[C@@H](CC(N)=O)C(=O)N2CCC[C@H]2C(=O)N[C@@H](CN)C(=O)N[C@@H](CC(C)C)C(=O)N2C[C@H](O)C[C@H]2C(=O)N[C@@H](Cc2c[nH]c3ccccc23)C(=O)N[C@@H](CO)C(=O)N[C@@H](Cc2c[nH]c3ccccc23)c2nnnn2[C@@H](CCCC)C(=O)N1C (stereo partly drawn) [Example 1054] ({CH2CO}-Y[Morpholine(3S-CO)]NP[Dap]L[Hyp]WS[X1][NMeNle][Orn][ξC]G-NH2; thioether N-13)
0.1 to 10 µM | CCCC[C@H]1C(=O)N(C)[C@@H](CCCC)C(=O)N[C@@H](CCC(=O)O)C(=O)N[C@H](C(=O)NCC(N)=O)CSCC(=O)N[C@@H](Cc2ccc(O)cc2)c2nnnn2[C@@H](C)C(=O)N[C@@H](CC(=O)O)C(=O)N2CCC[C@H]2C(=O)N[C@@H](CN)C(=O)N[C@@H](CCC(=O)O)C(=O)N2C[C@H](O)C[C@H]2C(=O)N[C@@H](Cc2c[nH]c3ccccc23)C(=O)N[C@@H](CCN)C(=O)N[C@@H](Cc2c[nH]c3ccccc23)C(=O)N1C [Example 1056] ({CH2CO}-[Tyrψ(CN4)Ala]DP[Dap]E[Hyp]W[Dab]W[NMeNle][NMeNle]ECG-NH2; thioether N-13)
0.1 to 10 µM | CCCC[C@H]1C(=O)N(C)[C@@H](CCCC)C(=O)N[C@@H](CC(C)C)C(=O)N[C@H](C(=O)NCC(N)=O)CSCC(=O)N[C@@H](Cc2ccc(O)cc2)c2nnnn2[C@@H](C)C(=O)N[C@@H](CC(N)=O)C(=O)N2CCC[C@H]2C(=O)N[C@@H](Cc2cnc[nH]2)C(=O)N[C@@H](CCC(N)=O)C(=O)N2C[C@H](O)C[C@H]2C(=O)N[C@@H](Cc2c[nH]c3ccccc23)C(=O)N[C@@H](CO)C(=O)N[C@@H](Cc2c[nH]c3ccccc23)C(=O)N1C [Example 1057] ({CH2CO}-[Tyrψ(CN4)Ala]NPHQ[Hyp]WSW[NMeNle][NMeNle]LCG-NH2; thioether N-13)
0.01 to 0.099 µM | CCCC[C@H]1C(=O)N[C@@H](CN)C(=O)N[C@H](C(=O)NCC(N)=O)CSCC(=O)N[C@@H](Cc2ccc(O)cc2)C(=O)N2CCCC[C@H]2C(=O)N[C@@H](CC(N)=O)C(=O)N2CCC[C@H]2C(=O)N[C@@H](CN)C(=O)N[C@@H](CCC(=O)O)C(=O)N2C[C@H](O)C[C@H]2C(=O)N[C@@H](Cc2c[nH]c3ccccc23)C(=O)N[C@@H](CCN)C(=O)N[C@@H](Cc2cccc3ccccc23)c2nnnn2[C@@H](CCCC)C(=O)N1C [Example 1059]
0.1 to 10 µM | CCCC[C@H]1C(=O)N(C)[C@@H](CCCC)C(=O)N[C@@H](CC(C)C)C(=O)N[C@H](C(=O)NCC(=O)O)CSCC(=O)N[C@@H](Cc2ccc(O)cc2)c2nnnn2[C@@H](C)C(=O)N[C@@H](CC(N)=O)C(=O)N2CCC[C@H]2C(=O)NC(Cc2c[nH]cn2)C(=O)N[C@@H](CCC(N)=O)C(=O)N2C[C@H](O)C[C@H]2C(=O)N[C@@H](Cc2c[nH]c3ccccc23)C(=O)N[C@@H](CO)C(=O)N[C@@H](Cc2csc3ccccc23)C(=O)N1C (stereo partly shown) [Example 1061] ({CH2CO}-[Tyrψ(CN4)Ala]NP[ξH]Q[Hyp]WS[Bta][NMeNle][NMeNle]LCG-OH; thioether N-13)
0.1 to 10 µM | CCCC[C@H]1C(=O)N[C@@H](CCC(=O)O)C(=O)N[C@H](C(=O)NCC(N)=O)CSCC(=O)N[C@@H](Cc2ccc(O)cc2)C(=O)N(C)[C@@H](C)C(=O)N[C@@H](CC(=O)O)C(=O)N2CCC[C@H]2C(=O)N[C@@H](CN)C(=O)N[C@@H](CCC(=O)O)C(=O)N2C[C@H](O)C[C@H]2C(=O)N[C@@H](Cc2c[nH]c3ccccc23)C(=O)N[C@@H](CO)C(=O)N[C@@H](Cc2c[nH]c3ccccc23)c2nnnn2[C@@H](CCCC)C(=O)N1C [Example 1101] ({CH2CO}-Y[NMeA]DP[Dap]E[Hyp]WS[X1][NMeNle]ECG-NH2; thioether N-13)
0.1 to 10 µM | CCCC[C@H]1C(=O)N[C@@H](CCC(=O)O)C(=O)N[C@H](C(=O)NCC(N)=O)CSCC(=O)N[C@@H](Cc2ccc(O)cc2)C(=O)N(C)[C@@H](C)C(=O)N[C@@H](CC(N)=O)C(=O)N2CCC[C@H]2C(=O)N[C@@H](CN)C(=O)N[C@@H](CC(C)C)C(=O)N2C[C@H](O)C[C@H]2C(=O)N[C@@H](Cc2c[nH]c3ccccc23)C(=O)N[C@@H](CO)C(=O)N[C@@H](Cc2c[nH]c3ccccc23)c2nnnn2[C@@H](CCCC)C(=O)N1C [Example 1102] ({CH2CO}-Y[NMeA]NP[Dap]L[Hyp]WS[X1][NMeNle]ECG-NH2; thioether N-13)
0.1 to 10 µM | CCCC[C@H]1C(=O)N[C@@H](C)C(=O)N[C@H](C(=O)NCC(N)=O)CSCC(=O)N[C@@H](Cc2ccc(O)cc2)C(=O)N(C)[C@@H](C)C(=O)N[C@@H](CC(=O)O)C(=O)N2CCC[C@H]2C(=O)N[C@@H](Cc2cnc[nH]2)C(=O)N[C@@H](CCC(N)=O)C(=O)N2C[C@H](O)C[C@H]2C(=O)N[C@@H](Cc2c[nH]c3ccccc23)C(=O)N[C@@H](CO)C(=O)N[C@@H](Cc2cccc3ccccc23)c2nnnn2[C@@H](CCCC)C(=O)N1C [Example 1103]

SMILES | IC50
CCCC[C@H]1C(=O)N[C@@H](C)C(=O)N[C@H](C(=O)NCC(N)=O)CSCC(=O)N[C@@H](Cc2ccc(O)cc2)C(=O)N(C)[C@@H](C)C(=O)N[C@@H](CC(N)=O)C(=O)N2CCC[C@H]2C(=O)N[C@@H](CN)C(=O)N[C@@H](CC(C)C)C(=O)N2C[C@H](O)C[C@H]2C(=O)N[C@@H](Cc2c[nH]c3ccccc23)C(=O)N[C@@H](CO)C(=O)N[C@@H](Cc2c[nH]c3ccccc23)c2nnnn2[C@@H](CCCC)C(=O)N1C [Example 1100] ({CH2CO}-Y[NMeA]NP[Dap]L[Hyp]WS[X1][NMeNle]ACG-NH2; thioether N-13) | 0.1 to 10 µM
